Results as given in publication PMC12305662, “Fragment-Based Development of Small Molecule Inhibitors Targeting Mycobacterium tuberculosis Cholesterol Metabolism” (Journal of Medicinal Chemistry, 2025).
Values after ≈ are worked out from the molar mass of the structure shown. Like-named read-outs stand apart in the source and are kept apart here.

Experiments:
CYP125 [1] = target: T1, CYP125 (Mycobacterium tuberculosis, UniProt P9WPP1); experiment: biochemical; type: binding; conditions: read-out: KD (μM) CYP125
CYP125 [2] = target: T1, CYP125; type: binding; conditions: for Δλmax (nm) CYP125, fragment screen: fragment 1 mM, P450 4-6 µM, Soret shift relative to DMSO (393 nm)
Mtb H37Rv [3] = experiment: Depletion of intracellular ATP (BacTiter Glo), Mtb on cholesterol; type: cell-based, Mycobacterium tuberculosis; conditions: Mycobacterium tuberculosis, H37RV, cholesterol as sole carbon source
Mtb H37Rv [4] = experiment: Extracellular Mtb growth on cholesterol, MABA MIC99; type: cell-based, Mycobacterium tuberculosis; conditions: Mycobacterium tuberculosis, H37RV, 336 h; cholesterol as sole carbon source; 2 weeks post-compound treatment; read-out: MABA-MIC99 (W2) H37Rv, cholesterol
CYP125 [5] = target: T1, CYP125; experiment: LC-MS substrate turnover assay (cholest-4-en-3-one); type: biochemical
CYP121 = CYP121 (Mycobacterium tuberculosis, UniProt P9WPP7); conditions: fragment 1 mM, P450 4-6 µM; relative to DMSO (417 nm)
CYP142 = CYP142 (Mycobacterium tuberculosis, UniProt P9WPL5); conditions: fragment 1 mM, P450 4-6 µM; relative to DMSO (418.5 nm)
CYP124 = CYP124 (Mycobacterium tuberculosis, UniProt P9WPP3); conditions: fragment 1 mM, P450 4-6 µM; relative to DMSO (419 nm)
CYP143 = CYP143 (Mycobacterium tuberculosis, UniProt P9WPL3); conditions: fragment 1 mM, P450 4-6 µM; relative to DMSO (416 nm)
CYP126 = CYP126 (Mycobacterium tuberculosis, UniProt P9WPN9); conditions: fragment 1 mM, P450 4-6 µM; relative to DMSO (418 nm)
CYP144 = CYP144 (Mycobacterium tuberculosis, UniProt P9WPL1); conditions: fragment 1 mM, P450 4-6 µM; relative to DMSO (421 nm)
Chain of CYP144 (P9WPL1 whole entry, the tested form may be a part): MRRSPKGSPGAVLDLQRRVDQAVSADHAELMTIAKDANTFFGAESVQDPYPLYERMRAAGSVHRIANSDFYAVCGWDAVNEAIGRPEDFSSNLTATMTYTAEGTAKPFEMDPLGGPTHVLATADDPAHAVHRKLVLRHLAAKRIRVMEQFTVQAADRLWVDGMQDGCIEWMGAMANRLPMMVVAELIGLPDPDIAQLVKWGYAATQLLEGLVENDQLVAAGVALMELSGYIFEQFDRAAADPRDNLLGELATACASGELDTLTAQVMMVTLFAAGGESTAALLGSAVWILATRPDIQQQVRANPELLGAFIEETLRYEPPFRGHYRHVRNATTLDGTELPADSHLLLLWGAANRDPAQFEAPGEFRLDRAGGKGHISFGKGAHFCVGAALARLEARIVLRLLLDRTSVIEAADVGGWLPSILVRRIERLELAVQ

T1 sequence (P9WPP1 whole entry, the tested form may be a part): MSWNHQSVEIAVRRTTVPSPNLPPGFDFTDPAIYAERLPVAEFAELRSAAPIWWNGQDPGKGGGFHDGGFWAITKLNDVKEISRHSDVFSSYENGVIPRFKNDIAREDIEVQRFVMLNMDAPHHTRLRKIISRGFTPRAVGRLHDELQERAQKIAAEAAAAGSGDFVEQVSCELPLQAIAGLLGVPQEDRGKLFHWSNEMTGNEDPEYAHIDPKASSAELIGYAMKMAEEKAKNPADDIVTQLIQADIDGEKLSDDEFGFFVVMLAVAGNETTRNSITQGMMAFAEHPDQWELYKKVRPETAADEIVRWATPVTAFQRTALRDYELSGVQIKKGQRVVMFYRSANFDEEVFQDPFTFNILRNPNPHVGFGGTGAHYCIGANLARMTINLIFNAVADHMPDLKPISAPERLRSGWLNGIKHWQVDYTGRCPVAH
Chain of CYP126 (P9WPN9 whole entry, the tested form may be a part): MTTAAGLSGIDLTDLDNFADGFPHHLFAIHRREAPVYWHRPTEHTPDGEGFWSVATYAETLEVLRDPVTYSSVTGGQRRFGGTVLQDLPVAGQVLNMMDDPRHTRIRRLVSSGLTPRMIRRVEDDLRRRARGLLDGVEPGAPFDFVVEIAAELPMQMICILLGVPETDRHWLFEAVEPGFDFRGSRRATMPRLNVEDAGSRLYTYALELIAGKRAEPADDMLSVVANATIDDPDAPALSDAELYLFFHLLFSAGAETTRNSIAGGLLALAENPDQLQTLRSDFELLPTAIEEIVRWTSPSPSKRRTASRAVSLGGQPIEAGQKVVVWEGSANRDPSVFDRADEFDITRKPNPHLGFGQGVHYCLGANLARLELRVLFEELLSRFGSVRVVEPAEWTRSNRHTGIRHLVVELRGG
Chain of CYP121 (P9WPP7 whole entry, the tested form may be a part): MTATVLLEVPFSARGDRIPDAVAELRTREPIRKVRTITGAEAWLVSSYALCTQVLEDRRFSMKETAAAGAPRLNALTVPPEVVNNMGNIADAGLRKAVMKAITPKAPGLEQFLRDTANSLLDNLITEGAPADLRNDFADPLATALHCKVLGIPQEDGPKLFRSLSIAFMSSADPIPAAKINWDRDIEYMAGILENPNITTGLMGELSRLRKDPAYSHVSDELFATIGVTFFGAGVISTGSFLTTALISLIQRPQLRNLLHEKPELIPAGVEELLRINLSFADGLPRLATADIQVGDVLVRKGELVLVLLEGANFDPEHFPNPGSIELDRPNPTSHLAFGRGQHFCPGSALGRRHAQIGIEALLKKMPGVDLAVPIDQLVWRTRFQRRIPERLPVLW
Chain of CYP142 (P9WPL5 whole entry, the tested form may be a part): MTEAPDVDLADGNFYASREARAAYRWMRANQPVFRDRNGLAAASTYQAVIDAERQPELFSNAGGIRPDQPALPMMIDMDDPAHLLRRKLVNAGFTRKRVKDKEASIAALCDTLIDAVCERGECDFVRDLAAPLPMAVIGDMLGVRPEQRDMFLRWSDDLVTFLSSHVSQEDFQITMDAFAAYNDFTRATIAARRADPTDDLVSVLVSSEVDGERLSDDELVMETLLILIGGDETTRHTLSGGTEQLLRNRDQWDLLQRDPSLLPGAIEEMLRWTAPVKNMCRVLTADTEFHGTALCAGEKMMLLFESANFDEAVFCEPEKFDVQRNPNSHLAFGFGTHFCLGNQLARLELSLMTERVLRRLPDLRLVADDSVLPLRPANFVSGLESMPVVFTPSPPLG
Chain of CYP143 (P9WPL3 whole entry, the tested form may be a part): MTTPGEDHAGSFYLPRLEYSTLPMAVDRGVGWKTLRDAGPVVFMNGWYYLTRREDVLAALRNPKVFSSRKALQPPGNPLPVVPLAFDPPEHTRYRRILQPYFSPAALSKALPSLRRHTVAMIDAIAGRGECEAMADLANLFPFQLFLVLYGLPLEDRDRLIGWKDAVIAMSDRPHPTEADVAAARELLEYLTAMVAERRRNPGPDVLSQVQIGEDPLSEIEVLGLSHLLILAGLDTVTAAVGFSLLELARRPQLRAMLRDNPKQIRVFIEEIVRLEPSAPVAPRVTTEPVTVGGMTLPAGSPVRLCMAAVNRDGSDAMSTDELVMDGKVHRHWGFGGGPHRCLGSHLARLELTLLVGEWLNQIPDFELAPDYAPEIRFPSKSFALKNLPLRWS
Chain of CYP124 (P9WPP3 whole entry, the tested form may be a part): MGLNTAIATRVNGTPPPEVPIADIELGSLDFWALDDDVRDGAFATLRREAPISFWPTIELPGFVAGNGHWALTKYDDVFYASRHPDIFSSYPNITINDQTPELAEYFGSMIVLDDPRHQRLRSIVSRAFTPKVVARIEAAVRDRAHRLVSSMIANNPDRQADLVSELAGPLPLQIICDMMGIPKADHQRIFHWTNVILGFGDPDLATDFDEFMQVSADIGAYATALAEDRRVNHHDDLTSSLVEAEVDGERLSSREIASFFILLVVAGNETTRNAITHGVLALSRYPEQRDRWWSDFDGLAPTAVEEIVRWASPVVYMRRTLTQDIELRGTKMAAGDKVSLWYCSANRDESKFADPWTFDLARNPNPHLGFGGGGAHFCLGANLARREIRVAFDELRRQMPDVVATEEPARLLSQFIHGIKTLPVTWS

Compound | Kd (CYP125 [1]) | CYP125 Δλmax (nm) HS (CYP125 [2]; compound 100 µM, P450 5 µM, high spin population, '-' = no HS maxima present) | CYP125 Δλmax (nm) LS (CYP125 [2]; compound 100 µM, P450 5 µM, low spin population, '-' = no LS maxima present) | IC50 (Mtb H37Rv [3]; 168 h, 1 week post-compound treatment, read-out: ATP-IC50 (W1) H37Rv, cholesterol) | IC50 (Mtb H37Rv [3]; 336 h, 2 weeks post-compound treatment, read-out: ATP-IC50 (W2) H37Rv, cholesterol) | MIC99 (Mtb H37Rv [4]) | IC50 (CYP125 [5]; CYP125 0.5 μM, cholest-4-en-3-one 5 µM, LC-MS, read-out: CYP125A1 IC50) | Ki (CYP125 [5]; estimated by Cheng-Prusoff, cholest-4-en-3-one Km CYP125 = 2.1 µM, read-out: CYP125A1 KI) | Δλmax (nm) CYP121, fragment screen (CYP121) | Δλmax (nm) CYP142, fragment screen (CYP142) | Δλmax (nm) CYP125, fragment screen (CYP125 [2]) | Δλmax (nm) CYP124, fragment screen (CYP124) | Δλmax (nm) CYP143, fragment screen (CYP143) | Δλmax (nm) CYP126, fragment screen (CYP126) | Δλmax (nm) CYP144, fragment screen (CYP144)
c1ccc(Cc2ccncc2)cc1 [1a] | 180 ± 6.7 µM | 2 nm | 27 nm | – | – | – | – | – | – | – | – | – | – | – | –
COc1ccc(CNc2cccc(Cc3ccncc3)c2)cc1 [5l, N-(4-Methoxybenzyl)-3-(pyridin-4-ylmethyl)aniline] | 6.4 ± 1.1 µM | – | – | 0.59 µM | 2.3 µM | 19 µM (≈ 5.78 µg/mL) | 18 ± 1.9 µM | 5.4 µM | – | – | – | – | – | – | –
O=C(O)c1ccnn1-c1ccccc1 [compound 51] | – | – | – | – | – | – | – | – | -1 nm | 0 nm | 0 nm | 0 nm | 0.5 nm | 0 nm | 0 nm
CNCc1ccc(-c2ccncc2)cc1 [compound 52] | – | – | – | – | – | – | – | – | -1 nm | 1.5 nm | 28.5 nm | 2 nm | 4 nm | 0 nm | 0 nm
O=C(O)c1ccc(-c2cccnc2)cc1 [compound 53] | – | – | – | – | – | – | – | – | 0 nm | 0 nm | 0 nm | 0 nm | 1 nm | 0 nm | 0 nm
O=C(O)c1ccc(-n2cccn2)cc1 [compound 54] | – | – | – | – | – | – | – | – | 0 nm | 0 nm | 0 nm | 0 nm | -0.5 nm | -1 nm | 0 nm
Clc1nccc2ccccc12 [compound 56] | – | – | – | – | – | – | – | – | -2 nm | 0 nm | 0 nm | 0 nm | -0.5 nm | 0 nm | 0 nm
Clc1ncccc1Br [compound 57] | – | – | – | – | – | – | – | – | -1 nm | 0 nm | 0 nm | 0 nm | 0.5 nm | 0 nm | 0 nm
O=c1ccc(Br)c[nH]1 [compound 58] | – | – | – | – | – | – | – | – | 0 nm | 0 nm | 0 nm | 0 nm | 0.5 nm | -1 nm | 0 nm
O=C(O)c1cncc(F)c1 [compound 60] | – | – | – | – | – | – | – | – | 0 nm | 0 nm | 0 nm | 0 nm | 1 nm | 0 nm | 0 nm
c1ccc(N2CCOCC2)nc1 [compound 63] | – | – | – | – | – | – | – | – | 0 nm | 0 nm | 0 nm | 0 nm | 1 nm | 0 nm | 0 nm
O=C1CCN(c2ccccc2)N1 [compound 64] | – | – | – | – | – | – | – | – | 0 nm | 1.5 nm | 0 nm | -1 nm | 1 nm | 0 nm | 0 nm
